Reference: US12252524B2, “GIP/GLP1 co-agonist compounds” (Eli Lilly and Company, priority 2018, dated 2025)
Numbered stars: 1 amine (or outer) side, 2 acyl side, 3 side chain; on linkers, the order of the positions; unused ones are H or OH. Square brackets hold non-standard residues; d marks the D form. Side chains are listed from the residue outwards. Peptide text beside a SMILES is read from it. * marks the point of attachment. C20 diacid = O=C(O)CCCCCCCCCCCCCCCCCCC(=O)*; C18 diacid = O=C(O)CCCCCCCCCCCCCCCCC(=O)*; αMePhe(2-F) = C[C@](N)(Cc1ccccc1F)C(=O)O; γGlu = O=C(O)[C@H](CCC(=O)[*:2])N[*:1]; αMeF = C[C@](N)(Cc1ccccc1)C(=O)O; 4Pal = N[C@@H](Cc1ccncc1)C(=O)O; Dab = NCC[C@H](N)C(=O)O; AEEA = NCCOCCOCC(=O)O; Aib = CC(C)(N)C(=O)O

Assays:
human GIP receptor = biological target: T1, human GIP receptor (Homo sapiens, UniProt P48546); assay: [125I]-GIP binding (SPA), human GIP receptor; details: read-out: hGIPR Ki, nM (SEM, n)
T1 construct: expressed in transfected cells; crude membranes
T1 sequence (P48546 22-466): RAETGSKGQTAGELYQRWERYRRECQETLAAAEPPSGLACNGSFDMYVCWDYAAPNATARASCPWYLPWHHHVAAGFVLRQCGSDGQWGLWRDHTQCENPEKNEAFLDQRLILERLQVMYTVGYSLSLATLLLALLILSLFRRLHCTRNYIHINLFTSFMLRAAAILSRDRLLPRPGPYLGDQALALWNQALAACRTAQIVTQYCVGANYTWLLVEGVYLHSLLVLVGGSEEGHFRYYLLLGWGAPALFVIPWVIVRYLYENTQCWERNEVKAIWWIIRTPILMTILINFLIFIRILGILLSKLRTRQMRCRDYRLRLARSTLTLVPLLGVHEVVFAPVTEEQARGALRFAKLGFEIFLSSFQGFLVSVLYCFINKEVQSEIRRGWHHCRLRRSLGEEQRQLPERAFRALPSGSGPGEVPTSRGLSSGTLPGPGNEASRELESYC

[1] = biological target: human GLP-1 receptor (GLP-1R) (Homo sapiens, UniProt P43220); assay: cAMP pharmacological functional assay in presence of casein, hGLP-1R; assay type: cell-based; details: HEK293 cells expressing hGLP-1R, 0.1% Casein, geometric mean; read-out: hGLP1R cAMP Rel EC50 nM (SEM, n)
Chain of human GLP-1 receptor (GLP-1R) (P43220 24-463): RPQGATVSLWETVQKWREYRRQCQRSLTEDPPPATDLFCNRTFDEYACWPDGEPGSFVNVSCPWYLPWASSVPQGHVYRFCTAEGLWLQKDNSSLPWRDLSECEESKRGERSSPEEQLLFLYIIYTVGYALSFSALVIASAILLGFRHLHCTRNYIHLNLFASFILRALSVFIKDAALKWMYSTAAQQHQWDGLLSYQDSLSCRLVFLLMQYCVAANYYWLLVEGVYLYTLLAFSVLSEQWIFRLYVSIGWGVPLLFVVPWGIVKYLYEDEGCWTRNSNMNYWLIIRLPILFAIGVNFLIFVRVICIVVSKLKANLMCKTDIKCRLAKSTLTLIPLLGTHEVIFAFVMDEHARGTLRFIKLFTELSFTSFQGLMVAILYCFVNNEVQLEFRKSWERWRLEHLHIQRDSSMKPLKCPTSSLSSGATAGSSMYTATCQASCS

human GLP-1R = human GLP-1R (Homo sapiens, UniProt P43220); assay: [125I]-GLP-1 binding (SPA), human GLP-1 receptor; design: expressed in transfected cells; crude membranes; details: read-out: hGLP1R Ki, (nM) (SEM, n)
Chain of human GLP-1R (P43220 24-463): as above
Procedure, shortened: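 Crude-membrane binding assay; one membrane prep included 1 mM MgCl2 and 25 units/ml DNAse I during lysis. Assay buffer at pH 7.4 contains 0.1% (w/v) bacitracin and 0.003% (w/v) TWEEN-20. Ki is reported as geometric mean.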

human Gcg receptor = biological target: T2, human Gcg receptor (Homo sapiens, UniProt P47871); assay: [125I]-Glucagon binding (SPA), human Gcg receptor; details: read-out: hGLcgR Ki, nM (SEM, n)
T2 construct: expressed in transfected cells; crude membranes
T2 sequence (P47871 26-477): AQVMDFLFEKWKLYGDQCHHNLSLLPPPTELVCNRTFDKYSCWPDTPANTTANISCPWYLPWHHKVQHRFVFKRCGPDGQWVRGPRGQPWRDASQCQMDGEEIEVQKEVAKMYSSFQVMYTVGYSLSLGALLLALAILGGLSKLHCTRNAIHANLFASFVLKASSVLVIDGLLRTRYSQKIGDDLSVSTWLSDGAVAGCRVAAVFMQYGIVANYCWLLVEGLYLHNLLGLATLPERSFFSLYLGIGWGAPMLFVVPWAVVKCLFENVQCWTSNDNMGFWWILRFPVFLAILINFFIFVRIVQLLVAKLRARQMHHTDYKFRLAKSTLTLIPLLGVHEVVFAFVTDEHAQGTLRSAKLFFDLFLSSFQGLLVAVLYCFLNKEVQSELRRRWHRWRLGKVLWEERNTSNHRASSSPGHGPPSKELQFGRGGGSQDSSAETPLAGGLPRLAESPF
Procedure, shortened: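 Scintillation counts are taken after membranes and WGA beads incubate and settle for 12 hours at room temperature. Buffer is 25 mM HEPES, pH 7.4, with CaCl2, MgCl2, bacitracin and Tween-20. Ki values, from four-parameter IC50 fits, are geometric means over independent days.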

[2] = biological target: T3, gastric inhibitory peptide receptor (GIPR) (Homo sapiens, UniProt P48546); assay: cAMP pharmacological functional assay in presence of casein, hGIPR; assay type: cell-based; details: HEK293 cells expressing hGIPR, 0.1% Casein, geometric mean; read-out: hGIPR cAMP Rel EC50 nM (SEM, n)
T3 sequence (P48546 22-466): T1 sequence (P48546 22-466)

| SMILES | Ki (human GIP receptor) | EC50 [1] | Ki (human GLP-1R) | Ki (human Gcg receptor) | EC50 [2] |
| --- | --- | --- | --- | --- | --- |
| CC[C@H](C)[C@H](NC(=O)[C@H](CC(C)C)NC(=O)[C@H](Cc1ccc(O)cc1)NC(=O)[C@H](CCC(=O)O)NC(=O)[C@@H](NC(=O)[C@H](Cc1ccccc1)NC(=O)[C@H](C)NC(=O)C(C)(C)NC(=O)[C@H](CCC(N)=O)NC(=O)[C@H](C)NC(=O)[C@H](CCCCNC(=O)COCCOCCNC(=O)COCCOCCNC(=O)CC[C@H](NC(=O)CCCCCCCCCCCCCCCCCCC(=O)O)C(=O)O)NC(=O)[C@H](CO)NC(=O)[C@H](CC(=O)O)NC(=O)[C@H](CC(C)C)NC(=O)[C@H](CC(C)C)NC(=O)[C@@H](NC(=O)[C@H](CO)NC(=O)[C@H](Cc1ccc(O)cc1)NC(=O)[C@H](CC(=O)O)NC(=O)[C@H](CO)NC(=O)[C@@H](NC(=O)[C@H](Cc1ccccc1)NC(=O)[C@@H](NC(=O)CNC(=O)[C@H](CCC(=O)O)NC(=O)C(C)(C)NC(=O)[C@@H](N)Cc1ccc(O)cc1)[C@@H](C)O)[C@@H](C)O)[C@@H](C)CC)[C@@H](C)CC)C(=O)N[C@@H](CCC(=O)O)C(=O)NCC(=O)NCC(=O)N1CCC[C@H]1C(=O)N[C@@H](CO)C(=O)N[C@@H](CO)C(=O)NCC(=O)N[C@@H](C)C(=O)N1CCC[C@H]1C(=O)N1CCC[C@H]1C(=O)N1CCC[C@H]1C(=O)N[C@@H](CO)C(N)=O [Example 9] (H-Y[Aib]EGTFTSDYSILLDSK([AEEA-AEEA-γGlu-C20 diacid])AQ[Aib]AFIEYLIEGGPSSGAPPPS-NH2) | 0.127 nM | 0.194 nM | 14.9 nM | 375 nM | 0.21 nM |
| CC[C@H](C)[C@H](NC(=O)[C@H](Cc1ccccc1)NC(=O)[C@H](C)NC(=O)C(C)(C)NC(=O)[C@H](CCC(N)=O)NC(=O)[C@H](C)NC(=O)[C@H](CCCCNC(=O)COCCOCCNC(=O)COCCOCCNC(=O)CC[C@H](NC(=O)CCCCCCCCCCCCCCCCCCC(=O)O)C(=O)O)NC(=O)[C@H](CCCCN)NC(=O)[C@H](CC(=O)O)NC(=O)[C@H](CC(C)C)NC(=O)[C@H](CC(C)C)NC(=O)[C@@H](NC(=O)[C@H](CO)NC(=O)[C@H](Cc1ccc(O)cc1)NC(=O)[C@H](CC(=O)O)NC(=O)[C@H](CO)NC(=O)[C@@H](NC(=O)[C@H](Cc1ccccc1)NC(=O)[C@@H](NC(=O)CNC(=O)[C@H](CCC(=O)O)NC(=O)C(C)(C)NC(=O)[C@@H](N)Cc1c[nH]cn1)[C@@H](C)O)[C@@H](C)O)[C@@H](C)CC)C(=O)N[C@@H](CCC(=O)O)C(=O)N[C@@H](Cc1ccc(O)cc1)C(=O)N[C@@H](CC(C)C)C(=O)N[C@@H](CC(C)C)C(=O)N[C@@H](CCC(=O)O)C(=O)NC(C)(C)C(=O)NCC(=O)N1CCC[C@H]1C(=O)N[C@@H](CO)C(=O)N[C@@H](CO)C(=O)NCC(=O)N[C@@H](C)C(=O)N1CCC[C@H]1C(=O)N1CCC[C@H]1C(=O)N1CCC[C@H]1C(=O)N[C@@H](CO)C(N)=O [Example 15] (H-H[Aib]EGTFTSDYSILLDKK([AEEA-AEEA-γGlu-C20 diacid])AQ[Aib]AFIEYLLE[Aib]GPSSGAPPPS-NH2) | 0.284 nM | 0.0336 nM | 2.19 nM | 130 nM | 0.613 nM |
| CC[C@H](C)[C@H](NC(=O)[C@H](CC(C)C)NC(=O)[C@H](Cc1ccc(O)cc1)NC(=O)[C@@H](CCC(=O)O)NC(=O)[C@@H](NC(=O)[C@H](Cc1ccccc1)NC(=O)[C@H](CCC(=O)O)NC(=O)C(C)(C)NC(=O)[C@H](CCC(N)=O)NC(=O)[C@H](C)NC(=O)[C@H](CCCCNC(=O)COCCOCCNC(=O)COCCOCCNC(=O)CC[C@H](NC(=O)CCCCCCCCCCCCCCCCC(=O)O)C(=O)O)NC(=O)[C@H](CCN)NC(=O)[C@H](CC(=O)O)NC(=O)[C@H](CC(C)C)NC(=O)[C@H](CC(C)C)NC(=O)[C@@H](NC(=O)[C@H](CO)NC(=O)[C@H](Cc1ccncc1)NC(=O)[C@H](CC(=O)O)NC(=O)[C@H](CO)NC(=O)[C@@H](NC(=O)[C@](C)(Cc1ccccc1F)NC(=O)[C@@H](NC(=O)CNC(=O)[C@H](CCC(=O)O)NC(=O)C(C)(C)NC(=O)[C@@H](N)Cc1ccc(O)cc1)[C@@H](C)O)[C@@H](C)O)[C@@H](C)CC)[C@@H](C)CC)C(=O)N[C@@H](CCC(=O)O)C(=O)NCC(=O)NCC(=O)N1CCC[C@H]1C(=O)N[C@@H](CO)C(=O)N[C@@H](CO)C(=O)NCC(=O)N[C@@H](C)C(=O)N1CCC[C@H]1C(=O)N1CCC[C@H]1C(=O)N1CCC[C@H]1C(=O)N[C@@H](CO)C(N)=O [Example 234] (H-Y[Aib]EGT[αMePhe(2-F)]TSD[4Pal]SILLD[Dab]K([AEEA-AEEA-γGlu-C18 diacid])AQ[Aib]EFI[dE]YLIEGGPSSGAPPPS-NH2) | 0.0563 nM | 0.0926 nM | 10.9 nM | > 1100 nM | 0.0372 nM |
| CC[C@H](C)[C@H](NC(=O)[C@H](CC(C)C)NC(=O)[C@H](Cc1ccc(O)cc1)NC(=O)[C@@H](CCC(=O)O)NC(=O)[C@@H](NC(=O)[C@H](Cc1ccccc1)NC(=O)[C@H](CCC(=O)O)NC(=O)C(C)(C)NC(=O)[C@H](CCC(N)=O)NC(=O)[C@H](C)NC(=O)[C@H](CCCCNC(=O)COCCOCCNC(=O)COCCOCCNC(=O)CC[C@H](NC(=O)CCCCCCCCCCCCCCCCCCC(=O)O)C(=O)O)NC(=O)[C@H](CCC(=O)O)NC(=O)[C@H](CC(=O)O)NC(=O)[C@H](CC(C)C)NC(=O)C(C)(C)NC(=O)[C@@H](NC(=O)[C@H](CO)NC(=O)[C@H](Cc1ccc(O)cc1)NC(=O)[C@H](CC(=O)O)NC(=O)[C@H](CO)NC(=O)[C@@H](NC(=O)[C@](C)(Cc1ccccc1)NC(=O)[C@@H](NC(=O)CNC(=O)[C@H](CCC(=O)O)NC(=O)C(C)(C)NC(=O)[C@@H](N)Cc1ccc(O)cc1)[C@@H](C)O)[C@@H](C)O)[C@@H](C)CC)[C@@H](C)CC)C(=O)N[C@@H](CCC(=O)O)C(=O)NCC(=O)NCC(=O)N1CCC[C@H]1C(=O)N[C@@H](CO)C(=O)N[C@@H](CO)C(=O)NCC(=O)N[C@@H](C)C(=O)N1CCC[C@H]1C(=O)N1CCC[C@H]1C(=O)N1CCC[C@H]1C(=O)N[C@@H](CO)C(N)=O [Example 225] (H-Y[Aib]EGT[αMeF]TSDYSI[Aib]LDEK([AEEA-AEEA-γGlu-C20 diacid])AQ[Aib]EFI[dE]YLIEGGPSSGAPPPS-NH2) | 0.0622 nM | 0.067 nM | 8.79 nM | 714 nM | 0.101 nM |
| CC[C@H](C)[C@H](NC(=O)[C@H](CCCCN)NC(=O)[C@H](CCCCNC(=O)COCCOCCNC(=O)COCCOCCNC(=O)CC[C@H](NC(=O)CCCCCCCCCCCCCCCCCCC(=O)O)C(=O)O)NC(=O)[C@H](CC(C)C)NC(=O)[C@H](CC(C)C)NC(=O)[C@@H](NC(=O)[C@H](CO)NC(=O)[C@H](Cc1ccc(O)cc1)NC(=O)[C@H](CC(=O)O)NC(=O)[C@H](CO)NC(=O)[C@@H](NC(=O)[C@H](Cc1ccccc1)NC(=O)[C@@H](NC(=O)CNC(=O)[C@H](CCC(=O)O)NC(=O)C(C)(C)NC(=O)[C@@H](N)Cc1ccc(O)cc1)[C@@H](C)O)[C@@H](C)O)[C@@H](C)CC)C(=O)N[C@@H](C)C(=O)N[C@@H](CCC(N)=O)C(=O)NC(C)(C)C(=O)N[C@@H](C)C(=O)N[C@@H](Cc1ccccc1)C(=O)N[C@H](C(=O)N[C@@H](CCC(=O)O)C(=O)N[C@@H](Cc1ccc(O)cc1)C(=O)N[C@@H](CC(C)C)C(=O)N[C@H](C(=O)N[C@@H](CCC(=O)O)C(=O)NCC(=O)NCC(=O)N1CCC[C@H]1C(=O)N[C@@H](CO)C(=O)N[C@@H](CO)C(=O)NCC(=O)N[C@@H](C)C(=O)N1CCC[C@H]1C(=O)N1CCC[C@H]1C(=O)N1CCC[C@H]1C(=O)N[C@@H](CO)C(N)=O)[C@@H](C)CC)[C@@H](C)CC [Example 28] (H-Y[Aib]EGTFTSDYSILLK([AEEA-AEEA-γGlu-C20 diacid])KIAQ[Aib]AFIEYLIEGGPSSGAPPPS-NH2) | 0.24 nM | 32.7 nM | 21.1 nM | > 902 nM | 1.66 nM |
